Several values for one entry are separate records, joined by “and”; a condition that tells them apart may be missing. Identical values can stand only once.
Key:
rat cortical neurons = assay: Protection against NMDA-induced excitotoxity; assay type: cell-based
Method: Cell culture. Cortical neurons were dissected from P1 rats and cultured in 96-well plates up to 7 days in the medium containing: neurobasal medium, 1.5% B27 supplement, 1 mM L-glutamine, penicillin/streptomycin.
Cell Viability/Cytotoxicity. Cell Viability was Detected by LDH Tests Like in Examples 1.1-1.2.
Cell treatment: concentration of DGAcs (10, 50 and 100 μg/ml) was added into cell culture medium at 4 DIV. After 24 h (at 5 DIV) 25% of medium was changed to fresh containing 1.5× concentration of DGAcs. Same treatment (change 25% with 1.5× concentration) was repeated at 6 DIV. The cells were transferred into Mg^2+-free Locke's buffer containing the same concentrations of DGAcs immediately before imaging experiments (at 7 DIV). For controls the same amount of medium was changed without addition of DGAcs.
In analyzing the results from the test set up starting at 7 DIV with 1 h NMDA stimulation (and 23 h follow up period), separate viability loss caused by CR can be taken into account by indexing 25 μM NMDA and 50 μM NMDA groups with the results of 0 NMDA control (see FIG. 14a). […] Even without correction for CR induced viability loss, DGAcs treatment induces very clear protection against NMDA-induced excitotoxity in 50 μM NMDA group (see FIG. 14b: “Viability after 24 hours with 1 h NMDA stimulation, indexed to 0 NMDA”)

[1] = First set of clinical in vivo experiments, fasting blood test (Example 2.1); design: species or system human; details: for Headache after stopping twice a day administration: subjects S1-S3 (N = 3), 20-48 hours after last administration
Method: In the first set of experiments presented in Example 2.1 all the blood measurements were conducted next day after last administration of DGAcs. In the longer experiments doses (3-5 mg/kg) were typically taken once a day (preferably in the evening before going to bed). In shorter 1-4 day experiments doses were taken twice a day, in the morning and before going to bed. In all experiments in Example 2.2 the last DGAcs dose was double in size (some 8 mg/kg), and it was taken in the same morning as the collection of blood samples. Relatively high dose and short time to measurement was chosen in order to see clearer dose response in gene expression from peripheral leukocytes, and also from collected plasma samples.
Eight (8) persons completed controlled clinical testing with standard 10-12 hour fasting diet (f) blood test (sample analytics by United Medix Laboratories, Finland). There were four different types of clinical tests: first a 3 week test with low dose of DGA (N=3), secondly one 11 day test with bigger dose (N=1), and finally a 4 day test with high dose (N=4) and with low dose of DGA (N=2). Subjects 1 and 4 (in table 3) did the first three week test and then some months later also the separate 4 day test.
Daily doses varied from 3-4 mg/kg/day in 3 week test to 6 mg/kg twice a day in 4 day test. General rule in the studies was that the shorter the period the higher the dose. In three week clinical tests fasting blood standard lipid panel and other basic readings were measured at the beginning and at the end of the test period.
In the 4 day tests very wide fasting blood panel consisting of 25 different metrics was measured (see table 3 below), and additionally for some participants full blood count to measure more precise effect on erythrocytes and hemoglobin was carried out.
Unlike in hepatocytes study (Example 1) clinical experiments were conducted in a fasting diet situation. Challenges for obtaining meaningful health indications from DGAcs administration arises from the fact that the study persons (aged 41-73) were all healthy volunteers, i.e. the blood values were mostly at very good levels, and thus improvements from the control are hard to achieve. Nevertheless the results from clinical testing show clear signs on the efficacy of DGA in improving systemic redox state of especially the cardiovascular system and also clear indications of increased overall metabolic flux. Specific markers for functioning of liver, kidneys, pancreas and spleen show improvement in general (see Table 4).

[2] = 4 day, 5-6 mg/kg twice a day, healthy lean subjects S1-S4, fasting blood, change from zero control
[3] = 4 day, 5-6 mg/kg twice a day, healthy lean subjects S1-S4, fasting blood, change from zero control, listed as DGA calcium salt
[4] = S4 (healthy person), after 4 day test, fasting blood

With `O=C(O)[C@H](O)CO` [DGA, D-glyceric acid] the “excitotoxity repetition by the private CRO” value (rat cortical neurons; confirmatory study, in line with first results) was “not statistically significant”, the “fS-Trigly, increases in blood triglycerides” value ([1]; 5 subjects) was “Observed 25-50% increases in blood triglycerides” and the “Headache after stopping twice a day administration” value ([1]; 4 day test) was “some symptoms of headache after 20-48”. For the same compound, the “fS-Lactate dehydrogenase (LDH), average decline” value ([1]; healthy volunteers (N = 3), 4 day test) was “some 4%. (Subject 3”, the “fS-Na (Sodium), average decline” value ([1]; healthy volunteers (N = 4), 4 day test) was about 1.5% and the “fS-Urate (uric acid), average decline” value ([1]; healthy volunteers (N = 6), 4 day test) was “test; average decline some 6%”. The “fS-Cholesterol, average decline” value ([1]; healthy volunteers (N = 8)) was “(only some 3-5%)”, the “fS-Chol.-HDL, average decline” value ([1]; healthy volunteers (N = 8), all periods and doses) was about 6% and the Diuretic effects ([1]; non-acute dose) was “Sodium decline in most”. For the same compound, the “fS-Urea, average decline” value ([1]; non-acute dose) was “some 7-8%”, the “CK, creatinine kinase, average reduction in values” ([1]; non-acute dose, N = 4) was “On average 25% reduction in values (N = 4)” and the “Bilirubin conj., average reduction in values” ([1]; non-acute dose, N = 6) was “On average 20% reduction in values. N = 6”. For the same compound, the “Bilirubin, average reduction in values” ([1]; non-acute dose, N = 6) was “On average some 20% reduction in values”, the “fS-Asat, average reduction in values” ([1]; non-acute dose, N = 6) was “On average 15-20% reduction” and the “fS-Fe, average reduction in values” ([1]; non-acute dose, N = 6) was “On average 15% reduction in values. N = 6”. For the same compound, the fS-Alat ([1]; non-acute dose, N = 8, when values were higher in the recommended range) was “improvement was observed, when values”.
With `O.O.O=C([O-])[C@H](O)CO.O=C([O-])[C@H](O)CO.[Ca+2]` [DGAcs, D-glyceric acid, calcium salt dehydrate] the “protection against NMDA-induced excitotoxity (LDH viability)” value (rat cortical neurons; 25 μM NMDA and 50 μM NMDA groups, 1 h NMDA at 7 DIV + 24 h, indexed to 0 NMDA) was “very clear and significant protection”, the “Headache after stopping twice a day administration” value ([1]; 4 day test) was “slight headache” and the “HDL, 4 day change” value [1, 2] was −5%. The “LDL, 4 day change” value [1, 2] was 2%, the “S-Afos, 4 day change” value [1, 2] was −2% and the “S-Alb, 4 day change” value [1, 2] was −2%. For the same compound, the “S-Amyl, 4 day change” value [1, 2] was 65%, the “S-Bil, 4 day change” value [1, 2] was −12.6% and −19% and the “S-Bil-Kj, 4 day change” value [1, 2] was −17%. The “S-CK, 4 day change” value [1, 2] was −22%, the “S-Cal, 4 day change” value [1, 2] was −2% and the “S-GT, 4 day change” value [1, 2] was 11%. The “S-K, 4 day change” value [1, 2] was −2%, the “S-LD (LDH), 4 day change” value [1, 2] was −4% and the “S-Mg, 4 day change” value [1, 2] was −2%. The “S-Na, 4 day change” value [1, 2] was −1%, the “S-Uraat, 4 day change” value [1, 2] was −9.9% and −5% and the “fS-Gluk, 4 day change” value [1, 2] was 2%. For the same compound, the “fS-Kol, 4 day change” value [1, 2] was −2%, the “fS-Krea, 4 day change” value [1, 2] was −4% and the “fS-Pi, 4 day change” value [1, 2] was 18%. For the same compound, the “fS-Transf, 4 day change” value [1, 2] was 10%, the “fS-Transferr.satur., 4 day change” value [1, 2] was −32% and the “fS-Urea, 4 day change” value [1, 2] was −7%. The “HDL, 4 day change” value [1, 3] was −4.5% and −3.3% and −9.1% and −5.9%, the “S-Afos, 4 day change” value [1, 3] was −2.1% and 0.0% and −5.8% and −6.3% and the “S-Alb, 4 day change” value [1, 3] was −2.2% and 0.0%. For the same compound, the “S-Cal, 4 day change” value [1, 3] was −1.7% and 0.0% and −2.2% and −2.5%, the “S-LD (LDH), 4 day change” value [1, 3] was −3.7% and −4.2% and −4.8% and the “S-Mg, 4 day change” value [1, 3] was −2.4% and 6.3% and −3.6% and 2.2%. The “S-Na, 4 day change” value [1, 3] was −1.4% and −2.1% and 0.7%, the “S-Uraat, 4 day change” value [1, 3] was −5.2% and −3.2% and −12.0% and −9.9% and the “fS-Kol, 4 day change” value [1, 3] was −1.6% and −5.7% and −6.4% and −3.2%. For the same compound, the “fS-Krea, 4 day change” value [1, 3] was −4.4% and −11.1% and −5.0% and −8.5%, the “AST/ALT (ratio) after treatment” value ([1]; S1, earlier 4 day test (zero control 1.36)) was 1.05 and the AST/ALT [1, 4] was 1.10. For the same compound, the S-Bil [1, 4] was 9.7, the S-Uraat [1, 4] was 246 and the fS-Fe [1, 4] was 20.2. For the same compound, the fS-Trigly [1, 4] was 1.73 and the “average decline in blood urea” value ([1]; after 4 and 4.5 day administrations) was “approximately 9%”.

— patent publication US12083084B2, “Method for enhancing energy production and metabolism in cells” (REPLICON HEALTH OY, priority 2013, dated 2024)
